From patent publication US4785080A, “Labeled analytes” (Baker Instruments Corporation, priority 1985, dated 1988)
“And” between values parts separate entries of the source, which are not always exact repeats. Equal entries are not always repeated.

How the values were obtained:
Assay type in all cases: binding
dilantin antibody [1] = assay: Reference displacement curve for dilantin, colorimetric, CentrifiChem 500 (Example XX)
Experimental: This Example illustrates the generation of a reference displacement curve for the dilantin analyte on the CentrifiChem®500 centrifugal fast analyzer. A […] substrate, 5'-O-acetyl-uridine-3'(4-methylumbelliferone-7-yl phosphate), was used.
(§1) The following reagents were prepared:
a. Dilantin S-peptide labeled analyte: Material prepared in the manner described in Examples V-VIII in 0.1M triethanolamine (TEA)-HCl buffer was used.
b. Antibody: Anti-dilantin antisera was diluted by a factor of 1/20 with 0.1M TEA-HCl buffer of pH 7.1;
c. Substrate: Seventeen milligrams of 5'-O-acetyl 2'-O-(tetrahydropyran-2-yl) uridine 3'-(4-methylumbelliferone-7-yl ammonium phosphate) was added to 750 ul 0.05N HCl and stirred at room temperature for 30 min. Sodium acetate buffer, (1.880 ml, 0.1M, pH 5..0), was added. Just before use, 300 ul of this solution was combined with 5.094 ml of 0.1M TEA-HCl buffer of pH 7.1;
d. S-protein: Sigma purified commercial material was diluted by a factor of 1:100 with 0.1M TEA-HCl buffer of pH 7.1 to give a solution having a concentration of 1.53×10^-6 M;
e. Dilantin standards: A stock solution of 5,5-diphenylhydantoin sodium salt (Sigma Lot 64C-0027) was made up by dissolving 48 mg in 1 liter of 0.025N sodium hydroxide. This was diluted by a factor of 1:10 with 0.025N sodium hydroxide to give a solution having 4.8 ug/ml. This was further diluted to give standard solutions having concentrations of 19.1, 47.8, 95.8, 143.6, and 191.5 ng/ml.
The CentrifiChem® 500 centrifugal fast analyzer had the following instrument settings: rotor temp, 30°; filter, nm; To, 10 sec; T, 1 min; ABS 1.0 u; Blank, hold; test mode, Term; print out, ABS; conc. factor, 0; test code 0.
Antibody, dilantin-S-peptide and 16.6 ul of the standard solution were pipetted into the sample well of channels to 16 of the transfer disc. S-protein and 300 ul of substrate were pipetted into each of the corresponding reagent wells of the transfer disc. The transfer disc was placed on the rotor and spun. […] Catalytic activity rates (a.u./min) were obtained frcm a least squares, regression analysis of absorbances as a function of time.

dilantin antibody [2] = assay: Homogeneous immunoassay of dilantin standards and clinical samples, automatic data reduction (Example XXI); settings: human serum
Experimental: This Example illustrates the design of an assay capable of directly assaying clinical samples, the use of the automatic pipetter (Model P-500) associated with the Centrifichem® 500 centrifugal fast analyzer, and the use of automatic data reduction.
The following reagents were utilized:
a. Labeled Analyte: Dilantin-S-peptide labeled analyte in 0.1 M triethanolamine (TEA)-HCl buffer, prepared in the manner described in Examples V-VIII was used.
b. Antibody: Anti-dilantin antiserum (150 ul) was diluted with 900 ul of 0.1M TEA-HCl buffer of pH 7.1;
c. Substrate: 5'-O-acetyl 2'-O-(tetrahydro pyran-2-yl) uridine 3'-(4-methylumbelliferone-7-yl ammonium phosphate) (6.4 mg) was added to 285.2 ul of 0.05N HCl and stirred at room temperature for 30 minutes. Sodium acetate buffer (714.8 ul, 0.1M, pH 5.0) was then added;
S-protein: A 12.3×10^-5 M solution of Sigma S-protein was made up in 0.1M TEA-HCl buffer (pH 7.1);
e. Dilantin standards: Solutions of 5, 5-diphenylhydantoin sodium salt (Sigma lot 64C-0027) were made up in human serum at concentrations of 2.5, 5.0, 10.0, 20.0 and 30.0 ug/ml.
A mixture of 16 ul S-peptide labeled analyte, 10 ul of human serum albumin, 1430 ul of TEA-HCl buffer, and the substrate solution described in (c.) was prepared (designated Reagent 1). A second mixture consisting of 150 ul of antiserum, 50 ul of S-protein, and 1937.5 ul of TEA buffer was prepared (designated Reagent 2). Using the CentrifiChem® P-500 automatic pipetter, 4 ul of the appropriate standard solution was simultaneously diluted with 45 ul of deionized H2 O and pipetted into the sample well of transfer disc. At the same time, the pipetter delivered 250 ul of Reagent 1 into the reagent well and 100 ul of Reagent 2 into the sample well. Instrumental parameters for the CentrifiChem® 500 centrifugal fast analyzer were the same as that for Example XX with the exception that Test Code 29 was used. This provides for automatic data reduction by the microprocessor unit of the CentrifiChem® 500 instrument.

dilantin antibody [3] = assay: Heterogeneous double antibody solid phase immunoassay of dilantin, free phase catalytic activity (Example XXII)
Experimental: A standard displacement curve is generated from the catalytic activity measurement using 5'-O-acetyluridyl-3'-(4-methylumbelliferone-7-yl) phosphate as a fluorogenic substrate for determination of analyte concentration of the control serum.
as §1
a. Dilantin-S-peptide labeled analyte: Labeled analyte in TEA-HCl buffer was prepared in the manner described in Examples V-VIII; 120 ul was diluted with 2860 ul of TEA-HCl buffer.
b. Antibody: Anti-dilantin antisera (300 ul) was diluted with 1800 ul of TEA-HCl buffer.
c. Solid phase immobilized second antibody: Bio-Rad IMMUNOBEAD™, Lot 17003, 50 mg was reconstituted with 50 ml of TEA-HCl buffer.
d. Substrate: 5'-O-acetyl-2'-O-(tetrahydropyran-2-yl) uridyl-3'-(4-methylumbelliferone-7-yl) ammonium phosphate, 35 mg, was deblocked with 1.5 ml of 0.025M HCl for 40 minutes at room temperature and extracted twice with 5 ml of ether. The residual ether was removed by the stream of air and the acidic solution was buffered with acetate buffer to 100 ml.
e. Acetate buffer: Sodium acetate buffer, 0.1M, pH 5.0.
f. TEA-HCl buffer: Triethanolamine-HCl buffer, 0.05M, pH 7.5.
g. […]
h. S-protein: Sigma purified solution was diluted 1/20 in acetate buffer.
[…] Antibody aliquots of 100 ul were pipetted into each duplicate tube of standards and the resulting mixtures were vortexed and incubated for 20 minutes at room temperature. Dilantin-S-peptide labeled analyte aliquots of 100 ul each were then pipetted into all tubes. The resulting mixture was incubated for 20 mintes at room temperature.
TEA-HCl buffer (108 ul), and Dilantin-S-peptide labeled analyte (100 ul) were pipetted into duplicate assay tubes labeled total. The resulting mixtures were mixed by vortexing and incubated for 20 minutes at room temperature.
Next a second antibody solution of 500 ul each was pipetted into all tubes except for total assay tubes. TEA-HCl buffer (500 ul) was pipetted into total assay tubes. The resulting mixtures were mixed by vortexing and were incubated for 60 minutes at room temperature. All assay tubes except total were centrifuged for 5 minutes at 3000 rpm at 5°-10° C.
The supernatant (free phase) of each tube was transferred into new tubes marked accordingly. The solid phase was resuspended with 0.5 ml of TEA buffer in each tube and centrifuged as above. The supernatant was decanted off.
Dose responsive catalytic activity was measured as follows:
An aliquot sample (50 ul each) of the free phase and total were assayed respectively with 1.8 ml of substrate and 50 ul of S-protein, measuring the fluorogenic product formation by emission at 440 nm when the mixture was excited at 325 nm, using a. Farrand Mark 1 fluorimeter.
The raw data were fit by a modified log-logit algorithm where the rates at infinite and 0 standard concentrations are obtained by an iterative procedure. Each data point in the Table represents the mean of duplicate points.

SMILES: O=C1NC(=O)C(c2ccccc2)(c2ccccc2)N1 [dilantin, 5,5-diphenylhydantoin]
- Rate (dilantin antibody [1]; standard 19.1 ng/ml): 0.0154 a.u./min and 0.0171 a.u./min
- Rate (dilantin antibody [1]; standard 47.8 ng/ml): 0.0183 a.u./min and 0.0158 a.u./min
- Rate (dilantin antibody [1]; standard 95.8 ng/ml): 0.0191 a.u./min and 0.0197 a.u./min
- Rate (dilantin antibody [1]; standard 143.6 ng/ml): 0.0204 a.u./min and 0.0180 a.u./min
- Rate (dilantin antibody [1]; standard 191.5 ng/ml): 0.0209 a.u./min and 0.0205 a.u./min
- 10^3 Response (dilantin antibody [2]; standard 2.5 ug/ml): 230 a.u. and 231 a.u.
- 10^3 Response (dilantin antibody [2]; standard 5 ug/ml): 252 a.u. and 256 a.u.
- 10^3 Response (dilantin antibody [2]; standard 10 ug/ml): 358 a.u. and 373 a.u.
- 10^3 Response (dilantin antibody [2]; standard 20 ug/ml): 512 a.u. and 494 a.u.
- 10^3 Response (dilantin antibody [2]; standard 30 ug/ml): 525 a.u. and 524 a.u.
- Rate, Mean (dilantin antibody [3]; standard 2.5 (ug/ml)): 10.0 na/min.
- Rate, Mean (dilantin antibody [3]; standard 5.0 (ug/ml)): 10.5 na/min.
- Rate, Mean (dilantin antibody [3]; standard 10.0 (ug/ml)): 14.0 na/min.
- Rate, Mean (dilantin antibody [3]; standard 20.0 (ug/ml)): 16.5 na/min.
- Rate, Mean (dilantin antibody [3]; standard 30.0 (ug/ml)): 19.0 na/min.
- Rate, Mean (dilantin antibody [3]; standard 40.0 (ug/ml)): 20.5 na/min.
